Publication PMC11274883, “Anticancer Effect of Pt^[sequence], Pt^II5MESS, Pt^II56MESS and Their Platinum(IV)-Dihydroxy Derivatives against Triple-Negative Breast Cancer and Cisplatin-Resistant Colorectal Cancer” (Cancers, 2024)

Key:
Assay type in all cases: cell-based
MDA−MB−231 cells [1] = assay: Cellular uptake of Pt by ICP-MS; conditions: for Intracellular Concentration: MDA−MB−231, 3 µM; for Intracellular/extracellular ratio: MDA−MB−231, extracellular 3 µM
Description: (§1) A final concentration of 10^6 cells/well of MDA−MB−231 and HT29 cells were seeded in 6-well plates and incubated overnight to adhere. The cells were then treated with a final concentration of 3 µM of either Pt^II or Pt^IV complexes. After 0, 0.5, 1, 3, 6, 12, 24 or 30 h, the medium was removed, and the cells were washed three times with cold PBS and allowed to dry. Then, 400 µL of 69% HNO3 (Baseline grade nitric acid with PPB level reported impurities, Seastar Chemicals, Sidney, BC, Canada) was added to each well for 90 min to ensure complete digestion. […] Iridium 193 (^193Ir) was mixed online and introduced into the ICP-MS to check uptake efficiency and matrix interference. All ICP-MS parameters are described in Table S2 and elaborated in Method S3. The results represent an average of three different experiments run in triplicate (±SEM) and expressed as nmol/10^6 cells or µM/cell. Quantification of the cellular uptake of Pt was based on external standards (Certified Standard from Sigma-Aldrich, VIC, Australia) containing Internal standard Ir.
(§2) Method S3. Cellular Uptake of Platinum(II) and (IV) complexes
(§3) A final concentration of 10^6 cells/well of MDA−MB−231 and HT29 cells were seeded in 6-well plates and incubated overnight to adhere. The cells were then treated with a final concentration of 3 µM of either PtII or PtIV complexes. After 0, 0.5, 1, 3, 6, 12, 24 or 30 h, the medium was removed, and the cells were washed three times with cold PBS and allowed to dry. Then, 400 µL of 69% HNO3 (Baseline grade nitric acid with Instrument Quality Grade Nitric acid with ppb level reported impurities, Seastar Chemicals, Sidney, Canada) was added to each well for 90 mins to ensure complete digestion. The digests were then moved to trace -metal free 15 mL centrifuge tubes […]
(§4) concentration of 3.5-4%. Iridium 193 (193Ir), selected as internal standard, has similar first ionisation potential and mass to Platinum 195 (195Pt). A concentration of 50 ppb 193Ir in 2% HNO3 solution was chosen for the Perkin Elmer NexION® Inductively Coupled Plasma Mass Spectrometer (ICP-MS) as it produced a steady state signal intensity of 600-800K counts per second. Mixing and injection of sample and internal standard solution was carried out using an ESI 7 port Valve system (Elemental Scientific, USA). A high-quality Solvent Flex 2 stop pump with 0.38 mm ID tubing was used in conjunction with the ICP-MS’s Peristaltic pump set at 20 […]
(§5) standard both, at 0.25 mL/min) being 0.5 mL/min. The ICP-MS was tuned to high sensitivity settings to facilitate detection of low Pt concentrations in samples. This was done by adjusting the nebuliser gas flow between […] to achieve maximum Indium 115 intensity whilst maintaining an acceptable average oxide and doubly charged ratio of 1.64-2.24% and 1.17-1.69% respectively. The analysis method was set to peak hopping mode with a dwell time of […] and 45 sweeps through the mass spectrum per sample read. […]
(§6) peak integration time of 4500 milliseconds and enabled the collection of numerous data points for peak integration thereby increasing accuracy. The ICP-MS was tuned daily, and its performance optimised to a set of suppliers recommended settings. Analysis was only carried out when optimal oxide and doubly charged ratios with high ionic sensitivity was achieved. All ICP-MS parameters are described in Table S2. The results represent an average of three different experiments run in triplicates (± SEM) and expressed as nmol/106 cells or µM/cell. Quantification of the cellular uptake of Pt was based on external standards (Certified Standard from Sigma-Aldrich NSW, Australia) containing Internal standard Ir. […]

HT29 cells [2] = assay: Cellular uptake of Pt by ICP-MS; conditions: for Intracellular Concentration: HT29, 3 µM; for Intracellular/extracellular ratio: HT29, extracellular 3 µM
Description: as §1, §2, §3, §4, §5, §6

MCF10A = assay: WST-1 cytotoxicity, 72 h; conditions: mean ± SEM
Description: Cells were seeded in 96-well flat-bottom culture plates at a concentration of 1000 cells per well. […] After 72 h, the medium was removed and replaced with new medium. The cell viability reagent WST-1 (10 µL, Roche Diagnostics, Indianapolis, IN, USA) was added to each well. After an hour, the absorbance was measured at 450 nm using a versatile microplate reader (Bio-strategy, Campbellfield, VIC, Australia). Three separate experiments were performed, each with n = 3 replicates. GraphPad prism 10 was used to calculate apparent IC50 values using the nonlinear regression model Y = Bottom + (Top-Bottom)/(1 + 10^(X-LogIC50)) where Top and bottom are plateaus in the y-axis (% survival). The R^2 value of the curve fits ranged from 0.8972 to 0.9794.

MDA−MB−231 cells [3] = assay: DCFDA cellular ROS detection assay; conditions: complexes at IC50, TBHP 20 µM
Description: (§7) DCFDA/H2DCFDA-cellular ROS Assay Kit (Abcam, Cambridge, MA, USA) was used to investigate the production of ROS in treated cells, as previously described. MDA−MB−231 or HT29 cells were seeded at a total concentration of 2500 cells/well in 96-well plates and incubated overnight. DMEM was then removed, and cells washed with 1× kit buffer, and stained with 25 µM 2′,7′-dichlorofluorescein diacetate (DCFH-DA) for 45 min. […] After that, the plates were scanned using the Glo-Max®-Multimode microplate reader (Promega Corporation, Alexandra, VIC, Australia) at an excitation/emission of 485/535 nm to detect fluorescence (relative fluorescence units, or RFU) at various time points. A positive control was generated using 20 µM tert-butyl hydroperoxide (TBHP), and the same procedure was applied with DCFDA. Three independent experiments in triplicates were implemented.

HT29 cells [4] = assay: DCFDA cellular ROS detection assay; conditions: complexes at IC50, TBHP 20 µM
Description: as §7

Row | Structure (SMILES) | Intracellular Concentration (MDA−MB−231 cells [1]; 0 h) [nmol/10^6 cells] | Intracellular Concentration (MDA−MB−231 cells [1]; 0.5 h) [nmol/10^6 cells] | Intracellular Concentration (MDA−MB−231 cells [1]; 1 h) [nmol/10^6 cells] | Intracellular Concentration (MDA−MB−231 cells [1]; 3 h) [nmol/10^6 cells] | Intracellular Concentration (MDA−MB−231 cells [1]; 6 h) [nmol/10^6 cells] | Intracellular Concentration (MDA−MB−231 cells [1]; 12 h) [nmol/10^6 cells] | Intracellular Concentration (MDA−MB−231 cells [1]; 24 h) [nmol/10^6 cells] | Intracellular Concentration (MDA−MB−231 cells [1]; 30 h) [nmol/10^6 cells] | Intracellular/extracellular ratio (MDA−MB−231 cells [1]; 0.5 h) | Intracellular/extracellular ratio (MDA−MB−231 cells [1]; 1 h) | Intracellular/extracellular ratio (MDA−MB−231 cells [1]; 3 h) | Intracellular/extracellular ratio (MDA−MB−231 cells [1]; 6 h) | Intracellular/extracellular ratio (MDA−MB−231 cells [1]; 12 h) | Intracellular/extracellular ratio (MDA−MB−231 cells [1]; 24 h) | Intracellular Concentration (HT29 cells [2]; 0 h) [nmol/10^6 cells] | Intracellular Concentration (HT29 cells [2]; 0.5 h) [nmol/10^6 cells] | Intracellular Concentration (HT29 cells [2]; 1 h) [nmol/10^6 cells] | Intracellular Concentration (HT29 cells [2]; 3 h) [nmol/10^6 cells] | Intracellular Concentration (HT29 cells [2]; 6 h) [nmol/10^6 cells] | Intracellular Concentration (HT29 cells [2]; 12 h) [nmol/10^6 cells] | other results
1 | N[C@H]1CCCC[C@@H]1N.O=[N+]([O-])[O-].O=[N+]([O-])[O-].[Pt+2].c1cnc2c(c1)ccc1cccnc12 [[Pt(1,10-phenanthroline)(1S,2S-diaminocyclohexane)](NO3)2] | 0.40 | 0.46 | 0.80 | 0.81 | 1.03 | 2.59 | 3.01 | 4.79 | 72.01 | 126.21 | 127.55 | 161.09 | 407.32 | 473.33 | 0.61 | 0.85 | 0.72 | 2.77 | 5.95 | 12.59 | Intracellular/extracellular ratio (MDA−MB−231 cells [1]; 0 h): 63.45; Intracellular/extracellular ratio (MDA−MB−231 cells [1]; 30 h): 752.93; Intracellular Concentration (HT29 cells [2]; 24 h): 15.26 nmol/10^6 cells; Intracellular Concentration (HT29 cells [2]; 30 h): 16.99 nmol/10^6 cells; Intracellular/extracellular ratio (HT29 cells [2]; 0 h): 95.39; Intracellular/extracellular ratio (HT29 cells [2]; 0.5 h): 133.55; Intracellular/extracellular ratio (HT29 cells [2]; 1 h): 112.44; Intracellular/extracellular ratio (HT29 cells [2]; 3 h): 435.59; Intracellular/extracellular ratio (HT29 cells [2]; 6 h): 935.29; Intracellular/extracellular ratio (HT29 cells [2]; 12 h): 1979.17; Intracellular/extracellular ratio (HT29 cells [2]; 24 h): 2397.59; IC50 (MCF10A): 3.49 ± 1.39 µM; ROS production (MDA−MB−231 cells [3]; MDA−MB−231, 24 h): 234.82 RFU; ROS production (MDA−MB−231 cells [3]; MDA−MB−231, 48 h): 285.31 RFU; ROS production (MDA−MB−231 cells [3]; MDA−MB−231, 72 h): 297.81 RFU; ROS production (HT29 cells [4]; HT29, 24 h): 219.00 RFU; ROS production (HT29 cells [4]; HT29, 48 h): 256.22 RFU; ROS production (HT29 cells [4]; HT29, 72 h): 273.00 RFU
2 | Cc1c(C)c2cccnc2c2ncccc12.N[C@H]1CCCC[C@@H]1N.O=[N+]([O-])[O-].O=[N+]([O-])[O-].[OH][Pt+2][OH] [Pt^IV56MESS(OH)2, [Pt(5,6-dimethyl-1,10-phenanthroline)(1S,2S-diaminocyclohexane)(dihydroxy)](NO3)2] | 0.14 | 0.11 | 0.05 | 0.25 | 0.30 | 1.16 | 2.74 | 4.19 | 50.71 | 26.14 | 117.57 | 142.93 | 548.82 | 1293.81 | 0.14 | 0.18 | 0.28 | 0.42 | 1.74 | 5.43 | Intracellular Concentration (HT29 cells [2]; 24 h): 9.14 nmol/10^6 cells; Intracellular Concentration (HT29 cells [2]; 30 h): 9.98 nmol/10^6 cells; Intracellular/extracellular ratio (HT29 cells [2]; 0 h): 21.81; Intracellular/extracellular ratio (HT29 cells [2]; 0.5 h): 28.52; Intracellular/extracellular ratio (HT29 cells [2]; 1 h): 43.51; Intracellular/extracellular ratio (HT29 cells [2]; 3 h): 66.77; Intracellular/extracellular ratio (HT29 cells [2]; 6 h): 273.54; Intracellular/extracellular ratio (HT29 cells [2]; 12 h): 854.01; Intracellular/extracellular ratio (HT29 cells [2]; 24 h): 1435.74; Intracellular/extracellular ratio (HT29 cells [2]; 30 h): 1568.28; IC50 (MCF10A): 4.91 ± 1.45 µM; ROS production (MDA−MB−231 cells [3]; MDA−MB−231, 24 h): 292.21 RFU; ROS production (MDA−MB−231 cells [3]; MDA−MB−231, 48 h): 360.12 RFU; ROS production (MDA−MB−231 cells [3]; MDA−MB−231, 72 h): 386.28 RFU; ROS production (HT29 cells [4]; HT29, 24 h): 244 RFU; ROS production (HT29 cells [4]; HT29, 48 h): 318.56 RFU; ROS production (HT29 cells [4]; HT29, 72 h): 368.11 RFU
